Data as given in patent US8399503B2, “Spirocyclic azaindole derivatives” (Gruenenthal GmbH, priority 2006, dated 2013).
Where a name gives a salt, the structure may show the parent alone.

Assays:
[1] = target: human μ-opiate receptor (Homo sapiens, UniProt P35372); assay: μ binding: [3H]-naloxone displacement, membrane preparation of CHO-K1 cells expressing the human μ-opiate receptor; conditions: [3H]-naloxone 1 nmole/l; Cheng-Prusoff conversion; read-out: μ-Opioid receptor, Ki value
Sequence of human μ-opiate receptor (P35372 whole entry): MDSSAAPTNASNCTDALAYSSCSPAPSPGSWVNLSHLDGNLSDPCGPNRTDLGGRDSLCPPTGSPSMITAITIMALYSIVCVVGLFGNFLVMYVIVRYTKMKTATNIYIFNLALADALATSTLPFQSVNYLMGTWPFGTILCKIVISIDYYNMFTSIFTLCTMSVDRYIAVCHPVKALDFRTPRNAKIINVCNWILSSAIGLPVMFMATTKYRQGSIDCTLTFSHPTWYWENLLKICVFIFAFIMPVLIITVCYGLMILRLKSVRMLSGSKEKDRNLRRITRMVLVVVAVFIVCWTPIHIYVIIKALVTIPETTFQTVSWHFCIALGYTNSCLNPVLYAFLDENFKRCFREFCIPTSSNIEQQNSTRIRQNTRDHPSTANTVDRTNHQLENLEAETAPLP

Row | melting point [°C] | Compound | Ki [1] [µM]
1 | 246 to 253 | CN(C)C1(c2ccccc2)CCC2(CC1)SCCc1c2[nH]c2ncccc12 (stereo not drawn) (as salt: citrate) | 
2 | 163 to 168 | CN(C)C1(c2ccccc2)CCC2(CC1)SCCc1c2[nH]c2ccncc12 (stereo not drawn) (as salt: citrate) | 
3 |  | c1ccc(CC2(N3CCOCC3)CCC3(CC2)OCCc2c3[nH]c3ncccc23)cc1 (stereo not drawn) [Example 19, 4-benzyl-4-morpholino-spiro[cyclohexane-1,8′-(5,6,8,9-tetrahydropyrano[3,4-b]-7-azaindole)]] | 2.91
